For orientation: AUC(0-t) means exposure summed from dosing to a finite time, without extrapolation to infinity. Read a low AUC(0-t) as less exposure. A word on the clearance: it is the volume of plasma or blood freed of the substance per unit of time. As usually defined, the bioavailability is the share of a dose that reaches the circulation, judged against a reference dose that is usually intravenous. A lower bioavailability goes with little systemic uptake. As usually defined, the Cmax is the highest concentration seen after dosing.

Here are results for one compound from patent publication US20240409543A1, “PYRROLOPYRAZOLE SPIRO COMPOUND” (CHIA TAI TIANQING PHARMACEUTICAL GROUP CO., LTD., priority 2021, published 2024).

A short description of this data set: In-vivo pharmacokinetic study in rats. Conditions: male, SD, rat, plasma. As for the experimental part: This experiment was intended to evaluate the pharmacokinetic behavior of each compound after a single intravenous injection and intragastric administration and to investigate the bioavailability after intragastric administration.
Male SD rats aged 7 to 10 weeks were selected. The rats were fasted for at least 12 h before administration and were allowed to feed again 4 h after administration, with free access to water throughout the experiment.
On the day of the experiment, animals in the intravenous group were given the corresponding compound by a single injection via the tail vein at an administration volume of 5 mL/kg; the oral group was given the corresponding compound by a single intragastric administration at an administration volume of 10 mL/kg. The animals were weighed before administration, and the administration volume was calculated based on their body weight. Sample collection time points: 0.083 h (injection group), 0.25 h, 0.5 h, 1 h, 2 h, 4 h, 6 h, 8 h, and 24 h. At each time point, approximately 200 μL of whole blood was collected via the jugular vein, which was then used to prepare plasma for concentration determination by high performance liquid chromatography-tandem mass spectrometry (LC-MS/MS).
All animals were euthanized with CO2 anesthesia after the PK samples were taken at the last time point. The plasma concentrations were processed using a non-compartmental model of the pharmacokinetic software WinNonlin™ Version 6.3 (Pharsight, Mountain View, CA), and the pharmacokinetic parameters were calculated using a linear log-trapezoidal method.

The mark [1] stands for this setting: iv, injection (tail vein), dose 2 mg/kg.
Where [2] appears, read: oral administration, dose 20 mg/kg.

Turning to `Cc1nc(N2CCC3(CC2)Cn2nccc2C3N)c(CO)nc1Sc1ccnc(N)c1Cl` (centres unmarked) [Compound 1], under setting [1], the AUC(0-t) came out at 4.05 µM·h and the clearance worked out at 17.3 mL/min/kg. Also, the bioavailability (oral 20 mg/kg vs injection 2 mg/kg) turned out to be 98%. Also, under setting [2], the AUC(0-t) came out at 39.7 µM·h and the Cmax is 9.73 µM.
